Calls of active or inactive are those of the source. The calls are words filed in the database; no cut-off is given here.
How the values were obtained:
HL-60 = assay: Induction of apoptosis in human HL-60 cells assessed as cell blebbing at 0.5 to 1 times IC50 by DAPI staining based microscopic analysis; assay type: functional
Histone deacetylase 1 = Histone deacetylase 1 (Homo sapiens, UniProt Q13547); assay: Inhibition of HDAC1 (unknown origin) using p53 residues 379 to 382 [RHKK(Ac)] as fluorogenic substrate assessed as residual activity at 1.11 x 10^-6M (reference value: 98.06%); settings: dose 1.11 10^-6M
Histone deacetylase 1, sequence (Q13547 whole entry, the tested form may be a part): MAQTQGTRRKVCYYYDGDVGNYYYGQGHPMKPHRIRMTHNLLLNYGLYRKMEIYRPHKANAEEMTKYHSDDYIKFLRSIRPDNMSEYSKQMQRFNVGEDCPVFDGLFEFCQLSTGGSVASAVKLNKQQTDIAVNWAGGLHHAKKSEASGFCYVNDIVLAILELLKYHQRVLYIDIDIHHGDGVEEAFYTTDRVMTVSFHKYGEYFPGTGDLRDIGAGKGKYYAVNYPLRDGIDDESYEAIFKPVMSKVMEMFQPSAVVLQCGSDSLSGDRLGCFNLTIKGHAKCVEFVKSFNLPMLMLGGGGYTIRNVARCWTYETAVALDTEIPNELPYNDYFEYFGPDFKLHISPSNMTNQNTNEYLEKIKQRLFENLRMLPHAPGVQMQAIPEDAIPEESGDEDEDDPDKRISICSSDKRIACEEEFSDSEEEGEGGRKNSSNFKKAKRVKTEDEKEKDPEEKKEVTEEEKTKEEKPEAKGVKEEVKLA

Histone deacetylase 2 [1] = target: T1, Histone deacetylase 2 (Homo sapiens, UniProt Q92769); assay: Inhibition of HDAC2 (unknown origin) assessed as residual activity at 1.52 x 10^-9M (reference value: 99.81%); settings: dose 1.52 10^-9M
T1 sequence (Q92769 whole entry): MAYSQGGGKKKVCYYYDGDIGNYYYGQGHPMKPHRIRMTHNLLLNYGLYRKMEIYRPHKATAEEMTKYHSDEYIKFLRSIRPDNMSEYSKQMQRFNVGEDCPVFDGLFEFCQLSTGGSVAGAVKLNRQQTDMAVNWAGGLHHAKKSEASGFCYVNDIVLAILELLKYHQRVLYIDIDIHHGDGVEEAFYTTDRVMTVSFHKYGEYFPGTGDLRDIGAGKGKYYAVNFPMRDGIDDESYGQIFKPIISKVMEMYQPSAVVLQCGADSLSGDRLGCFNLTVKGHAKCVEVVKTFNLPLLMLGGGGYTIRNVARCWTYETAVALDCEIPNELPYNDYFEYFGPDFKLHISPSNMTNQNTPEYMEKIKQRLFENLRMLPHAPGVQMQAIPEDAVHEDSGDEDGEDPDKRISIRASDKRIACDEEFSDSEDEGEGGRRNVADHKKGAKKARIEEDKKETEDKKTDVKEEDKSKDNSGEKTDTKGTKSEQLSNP

[2] = target: Histone deacetylase 5 (Homo sapiens) (UniProt Q9UQL6); assay: Inhibition of HDAC5 (unknown origin) assessed as residual activity at 3.70 x 10^-7M (reference value: 100%); settings: dose 3.7 10^-7M
Histone deacetylase 5 (Homo sapiens), sequence (Q9UQL6 whole entry, the tested form may be a part): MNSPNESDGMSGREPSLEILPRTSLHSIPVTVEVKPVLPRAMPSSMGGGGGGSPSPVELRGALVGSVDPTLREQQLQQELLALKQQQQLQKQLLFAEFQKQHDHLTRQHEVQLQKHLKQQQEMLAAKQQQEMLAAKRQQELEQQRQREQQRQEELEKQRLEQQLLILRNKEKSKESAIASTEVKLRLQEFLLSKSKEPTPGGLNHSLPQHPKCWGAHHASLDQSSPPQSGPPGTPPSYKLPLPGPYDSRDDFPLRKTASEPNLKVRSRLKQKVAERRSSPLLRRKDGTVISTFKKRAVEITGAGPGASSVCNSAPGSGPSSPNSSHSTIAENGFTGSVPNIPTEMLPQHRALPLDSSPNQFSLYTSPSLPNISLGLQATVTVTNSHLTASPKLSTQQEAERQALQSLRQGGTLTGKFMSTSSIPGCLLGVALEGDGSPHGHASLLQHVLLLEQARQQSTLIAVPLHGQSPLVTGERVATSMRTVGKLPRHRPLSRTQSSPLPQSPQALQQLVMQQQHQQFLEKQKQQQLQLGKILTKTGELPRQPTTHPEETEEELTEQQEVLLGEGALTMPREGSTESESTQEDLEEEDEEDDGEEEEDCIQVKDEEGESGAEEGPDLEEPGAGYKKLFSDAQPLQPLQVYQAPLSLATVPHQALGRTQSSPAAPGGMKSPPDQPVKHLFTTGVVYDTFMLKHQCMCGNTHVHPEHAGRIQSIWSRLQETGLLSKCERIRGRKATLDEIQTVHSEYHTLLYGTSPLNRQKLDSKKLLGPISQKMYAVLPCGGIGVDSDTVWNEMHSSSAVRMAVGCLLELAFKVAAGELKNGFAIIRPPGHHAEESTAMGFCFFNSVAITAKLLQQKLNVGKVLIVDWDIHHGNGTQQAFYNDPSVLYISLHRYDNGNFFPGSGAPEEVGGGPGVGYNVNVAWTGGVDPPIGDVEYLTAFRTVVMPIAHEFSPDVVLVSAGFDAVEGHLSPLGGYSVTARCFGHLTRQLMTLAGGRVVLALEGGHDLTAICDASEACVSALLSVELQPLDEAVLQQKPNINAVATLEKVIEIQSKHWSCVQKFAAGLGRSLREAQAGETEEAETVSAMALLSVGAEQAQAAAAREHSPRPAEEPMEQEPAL

[3] = target: T2, Protein deacetylase HDAC6 (Homo sapiens) (UniProt Q9UBN7); assay: Inhibition of HDAC6 (unknown origin) using p53 residues 379 to 382 [RHKK(Ac)] as fluorogenic substrate assessed as residual activity at 5.08 x 10^-10M (reference value: 101.06%); settings: dose 5.08 10^-10M
T2 sequence (whole entry): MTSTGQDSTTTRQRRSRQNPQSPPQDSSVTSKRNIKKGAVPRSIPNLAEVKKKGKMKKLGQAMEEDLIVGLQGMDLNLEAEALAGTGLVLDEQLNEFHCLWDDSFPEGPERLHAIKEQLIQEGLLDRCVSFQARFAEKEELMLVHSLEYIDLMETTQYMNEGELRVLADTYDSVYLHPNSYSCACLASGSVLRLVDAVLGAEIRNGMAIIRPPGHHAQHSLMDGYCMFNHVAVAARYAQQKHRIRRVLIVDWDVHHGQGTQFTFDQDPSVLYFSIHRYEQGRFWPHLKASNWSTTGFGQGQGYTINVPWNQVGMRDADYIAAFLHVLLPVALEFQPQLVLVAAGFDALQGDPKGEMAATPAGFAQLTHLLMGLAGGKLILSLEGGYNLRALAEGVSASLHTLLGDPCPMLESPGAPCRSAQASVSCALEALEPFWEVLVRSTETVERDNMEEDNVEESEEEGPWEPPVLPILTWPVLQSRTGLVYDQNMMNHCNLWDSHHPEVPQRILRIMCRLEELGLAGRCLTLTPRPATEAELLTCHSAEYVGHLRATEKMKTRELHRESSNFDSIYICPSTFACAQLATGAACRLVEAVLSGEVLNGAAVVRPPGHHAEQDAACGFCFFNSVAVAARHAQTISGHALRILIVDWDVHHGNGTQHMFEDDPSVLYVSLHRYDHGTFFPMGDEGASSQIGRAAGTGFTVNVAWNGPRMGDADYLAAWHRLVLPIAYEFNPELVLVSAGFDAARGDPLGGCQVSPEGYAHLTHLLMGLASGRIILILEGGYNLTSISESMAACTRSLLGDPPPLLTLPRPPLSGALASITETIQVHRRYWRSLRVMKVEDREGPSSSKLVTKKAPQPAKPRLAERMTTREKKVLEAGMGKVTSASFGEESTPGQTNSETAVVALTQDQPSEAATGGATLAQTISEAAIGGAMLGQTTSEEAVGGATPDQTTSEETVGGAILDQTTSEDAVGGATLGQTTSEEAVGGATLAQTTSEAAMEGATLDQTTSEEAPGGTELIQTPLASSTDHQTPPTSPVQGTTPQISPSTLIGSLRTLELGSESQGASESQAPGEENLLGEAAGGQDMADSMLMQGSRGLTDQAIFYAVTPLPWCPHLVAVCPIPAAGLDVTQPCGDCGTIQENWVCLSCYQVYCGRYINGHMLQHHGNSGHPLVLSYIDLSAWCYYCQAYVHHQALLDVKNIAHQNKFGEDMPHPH

[4] = target: Histone deacetylase 5 (Homo sapiens) (UniProt Q9UQL6); assay: Inhibition of HDAC5 (unknown origin) assessed as residual activity at 1.1 x 10^-6M (reference value: 100%); settings: dose 1.1 10^-6M
Histone deacetylase 2 [5] = target: T1, Histone deacetylase 2; assay: Inhibition of HDAC2 (unknown origin) assessed as residual activity at 4.12 x 10^-8M (reference value: 99.81%); settings: dose 4.12 10^-8M
[6] = target: T2, Protein deacetylase HDAC6 (Homo sapiens); assay: Inhibition of HDAC6 (unknown origin) using p53 residues 379 to 382 [RHKK(Ac)] as fluorogenic substrate assessed as residual activity at 4.12 x 10^-8M (reference value: 101.06%); settings: dose 4.12 10^-8M
[7] = target: Histone deacetylase 9 (Homo sapiens) (UniProt Q9UKV0); assay: Inhibition of HDAC9 (unknown origin) assessed as residual activity at 3.33 x 10^-6M (reference value: 97.55%); settings: dose 3.33 10^-6M
Histone deacetylase 9 (Homo sapiens), sequence (Q9UKV0 whole entry): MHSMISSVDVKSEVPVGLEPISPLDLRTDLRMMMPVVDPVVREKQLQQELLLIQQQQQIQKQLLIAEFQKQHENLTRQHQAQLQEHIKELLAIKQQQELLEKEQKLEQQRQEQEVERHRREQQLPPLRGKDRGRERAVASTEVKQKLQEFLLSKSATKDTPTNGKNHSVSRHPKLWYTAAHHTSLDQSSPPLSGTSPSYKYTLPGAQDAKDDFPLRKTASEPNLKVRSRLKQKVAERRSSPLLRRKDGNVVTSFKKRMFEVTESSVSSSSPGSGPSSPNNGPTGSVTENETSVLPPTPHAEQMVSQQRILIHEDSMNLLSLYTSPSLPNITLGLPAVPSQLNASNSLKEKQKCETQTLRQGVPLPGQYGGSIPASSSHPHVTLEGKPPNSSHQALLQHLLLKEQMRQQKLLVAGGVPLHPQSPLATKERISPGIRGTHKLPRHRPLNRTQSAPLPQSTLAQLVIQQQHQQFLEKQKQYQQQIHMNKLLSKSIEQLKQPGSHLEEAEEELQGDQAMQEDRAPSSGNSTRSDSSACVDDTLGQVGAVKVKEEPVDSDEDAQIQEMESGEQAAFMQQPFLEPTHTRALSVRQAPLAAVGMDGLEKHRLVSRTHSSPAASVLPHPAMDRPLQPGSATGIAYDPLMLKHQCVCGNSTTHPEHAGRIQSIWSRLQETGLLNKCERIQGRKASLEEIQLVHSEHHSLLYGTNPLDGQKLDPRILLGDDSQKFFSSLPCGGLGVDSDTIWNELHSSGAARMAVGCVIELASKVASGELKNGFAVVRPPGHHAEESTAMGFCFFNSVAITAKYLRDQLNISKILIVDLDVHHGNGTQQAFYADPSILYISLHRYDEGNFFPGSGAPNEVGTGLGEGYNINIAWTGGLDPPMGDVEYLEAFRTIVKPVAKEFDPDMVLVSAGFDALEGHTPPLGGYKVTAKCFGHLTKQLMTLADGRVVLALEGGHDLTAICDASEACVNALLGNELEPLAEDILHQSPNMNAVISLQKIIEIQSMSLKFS

[8] = target: T3, Histone deacetylase 7 (Homo sapiens) (UniProt Q8WUI4); assay: Inhibition of HDAC7 (unknown origin) assessed as residual activity at 4.57 x 10^-9M (reference value: 102.66%); settings: dose 4.57 10^-9M
T3 sequence (whole entry): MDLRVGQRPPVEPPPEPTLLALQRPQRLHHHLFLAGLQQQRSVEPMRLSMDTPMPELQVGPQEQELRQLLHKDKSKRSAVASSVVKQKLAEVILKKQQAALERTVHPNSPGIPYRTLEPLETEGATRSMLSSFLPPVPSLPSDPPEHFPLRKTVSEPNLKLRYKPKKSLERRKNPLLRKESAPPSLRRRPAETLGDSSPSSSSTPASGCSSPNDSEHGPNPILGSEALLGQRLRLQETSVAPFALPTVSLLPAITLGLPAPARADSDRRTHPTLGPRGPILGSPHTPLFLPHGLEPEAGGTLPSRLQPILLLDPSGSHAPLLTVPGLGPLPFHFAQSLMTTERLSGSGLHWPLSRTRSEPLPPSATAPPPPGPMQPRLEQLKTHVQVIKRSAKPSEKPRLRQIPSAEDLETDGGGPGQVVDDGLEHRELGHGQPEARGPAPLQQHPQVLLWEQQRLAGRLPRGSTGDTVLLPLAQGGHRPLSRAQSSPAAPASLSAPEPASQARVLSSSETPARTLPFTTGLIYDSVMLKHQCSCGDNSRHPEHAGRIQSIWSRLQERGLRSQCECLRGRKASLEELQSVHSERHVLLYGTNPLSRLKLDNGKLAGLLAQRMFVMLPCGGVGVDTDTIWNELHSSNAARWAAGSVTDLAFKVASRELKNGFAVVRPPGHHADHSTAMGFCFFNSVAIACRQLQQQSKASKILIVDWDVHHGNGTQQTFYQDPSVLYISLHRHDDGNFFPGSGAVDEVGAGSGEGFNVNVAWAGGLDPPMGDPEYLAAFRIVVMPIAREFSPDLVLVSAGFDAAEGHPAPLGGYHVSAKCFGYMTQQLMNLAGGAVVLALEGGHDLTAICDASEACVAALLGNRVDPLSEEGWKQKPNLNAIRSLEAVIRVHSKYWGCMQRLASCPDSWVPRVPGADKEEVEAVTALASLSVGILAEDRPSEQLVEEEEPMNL

NC(=O)c1cccc2[nH]c(-c3ccc(NCc4ccc(C(=O)Nc5ccccc5N)cc4)cc3)nc12
Activity (HL-60): inactive
Activity (Histone deacetylase 1): 11%
Activity (Histone deacetylase 2 [1]): 98.2%
Activity [2]: 77.6%
Activity [3]: 101%
Activity [4]: 93%
Activity (Histone deacetylase 2 [5]): 69.7%
Activity [6]: 99.2%
Activity [7]: 81%
Activity [8]: 111%

From ChEMBL document CHEMBL5550160, “Leveraging a rationally designed veliparib-based anilide eliciting anti-leukemic effects for the design of pH-responsive polymer nanoformulation” (Eur J Med Chem, 2024)
